Source: US4087432A, “1H-imidazo(4,5-b)pyridine compounds” (Eli Lilly and Company, priority 1975, dated 1978)
Where “and” joins values, the source holds several entries; their conditions need not be identical. Identical values can stand only once.

Assays:
Corn [1] = assay: Postemergent injury rating, corn; format: in vivo; set-up: key: injury rating scale, 4 = death
Experimental: (§1) Various of the compounds to be employed as active agent in accordance with the present invention were evaluated for preemergent application to various species of plants. In this evaluation, a soil was prepared consisting of one part masonry sand and one part shredded top soil blended together in a cement mixer. One gallon of this soil was placed in a 25 × 35 cm. galvanized flat and was patted down with a bench brush until level. A three-row marker was used to make 21/2 cm. deep furrows in approximately two-fifths of the flat. Crop seeds consisting of four kernels of corn, five cotton seeds and five soybean seeds were placed in these furrows. A four-row template was then placed on the remaining soil and the indicated approximate numbers of each of the following seeds were planted, one species to each section: foxtail (millet), 80-100 seeds; velvetleaf (40-50 seeds); rough pigweed (150-250 seeds); and large crabgrass (100-150 seeds).
(§2) Sufficient soil was added to cover the entire flat. Thus, the weed seeds were covered to a depth of about 6 mm. and the crop seeds were covered to a depth of about 3 cm.
(§3) In assaying the effect of the composition as preemergent herbicides, a flat prepared as above, taken either on the day of planting or on the next day, was placed in a chamber equipped with a turntable and an air exhaust. The herbicidal composition, either a spray-type emulsion or a wettable powder, was applied to the flat with a modified DeVilbiss atomizer hooked to an air source. Twelve and one-half milliliters of the composition under test were applied to each flat either on the day of planting or the succeeding day. Injury ratings and observations as to type of injury were made eleven to twelve days after treatment. The injury rating scale used was as follows:
(§4) 4--death When more than one determination was carried out at a given rate, an average value was calculated for the injury rating. Each compound evaluated was formulated as a spray by one of the following procedures. In one method the particular compound was wetted by grinding in a mortar with one part of polyoxyethylene sorbitan monolaurate. Five hundred parts of water were added slowly to the resultant creamy paste to give an aqueous dispersion with a surfactant concentration of 0.2 percent. This dispersion was entirely satisfactory for spray application. In a second procedure the compound was dissolved in one volume of acetone, and the acetone solution was diluted with nineteen volumes of water containing 0.1 percent of polyoxyethylene sorbitan monolaurate.
(§5) Representative compounds of the present invention were evaluated for postemergent application to plants including corn and several weed species. The evaluation was carried out in accordance with the procedures of Examples 49-52 except that the test solutions were applied about 9-12 days after the preparation and seeding of the flats.

Crabgrass [2] = assay: Postemergent injury rating, crabgrass; format: in vivo, large crabgrass; set-up: key: injury rating scale, 4 = death
Experimental: as §1, §2, §3, §4, §5

Pigweed [3] = assay: Postemergent injury rating, pigweed; format: in vivo, rough pigweed; set-up: key: injury rating scale, 4 = death
Experimental: as §1, §2, §3, §4, §5

Foxtail [4] = assay: Postemergent injury rating, foxtail; format: in vivo, foxtail (millet); set-up: key: injury rating scale, 4 = death
Experimental: as §1, §2, §3, §4, §5

Corn [5] = assay: Preemergent injury rating, corn; format: in vivo; set-up: key: injury rating scale on which 4 = death
Experimental: as §1, §2, §3, §4
(§6) In the following table setting forth the results of the evaluation, column 1 gives the name of the compound under test; column 2, the rate in pounds per acre at which the compound was applied to the test flat; and the remaining columns, the injury to the particular plant seeds or seedlings as measured by the foregoing scale.

Cotton = assay: Preemergent injury rating, cotton; format: in vivo; set-up: key: injury rating scale on which 4 = death
Experimental: as §1, §2, §3, §4, §6

Soybean = assay: Preemergent injury rating, soybean; format: in vivo; set-up: key: injury rating scale on which 4 = death
Experimental: as §1, §2, §3, §4, §6

Crabgrass [6] = assay: Preemergent injury rating, crabgrass; format: in vivo, large crabgrass; set-up: key: injury rating scale on which 4 = death
Experimental: as §1, §2, §3, §4, §6

Pigweed [7] = assay: Preemergent injury rating, pigweed; format: in vivo, rough pigweed; set-up: key: injury rating scale on which 4 = death
Experimental: as §1, §2, §3, §4, §6

Foxtail [8] = assay: Preemergent injury rating, foxtail; format: in vivo, foxtail (millet); set-up: key: injury rating scale on which 4 = death
Experimental: as §1, §2, §3, §4, §6

Velvet Leaf [9] = assay: Preemergent injury rating, velvetleaf; format: in vivo; set-up: key: injury rating scale on which 4 = death
Experimental: as §1, §2, §3, §4, §6

Jimsonweed = assay: General herbicidal effect alone/in combination, jimsonweed; format: in vivo; set-up: key: 0-10 scale: 0 = no injury, 10 = death; conditions: alone
Experimental: as §1, §2, §3, §4
(§7) 6-Chloro-1-hydroxy-2-(trifluoromethyl)-1H-imidazo(4,5-b)pyridine was evaluated in combination with 2-chloro-4-ethylamino-6-isopropylamino-s-triazine and separately in combination with 2-chloro-2',6'-diethyl-N-(methoxymethyl)acetanilide for the control of plants. The evaluations were conducted as described in Examples 49-52, except that the rates of compound differed and the species were different. General herbicidal effect was rated on a scale of 0-10, with 0 = no injury and 10 = death. Observations were also made for the following other specific phytotoxic effects.

Lambs Quarter = assay: General herbicidal effect alone/in combination, lambsquarter; format: in vivo; set-up: key: 0-10 scale: 0 = no injury, 10 = death; conditions: alone, listed as A
Experimental: as §1, §2, §3, §4, §7

Velvet Leaf [10] = assay: General herbicidal effect alone/in combination, velvetleaf; format: in vivo; set-up: key: 0-10 scale: 0 = no injury, 10 = death; conditions: alone
Experimental: as §1, §2, §3, §4, §7

Corn [11] = assay: General herbicidal effect alone/in combination, corn (first Corn column); format: in vivo; set-up: key: 0-10 scale: 0 = no injury, 10 = death; conditions: alone
Experimental: as §1, §2, §3, §4, §7

Ragweed = assay: General herbicidal effect alone/in combination, ragweed; format: in vivo; set-up: key: 0-10 scale: 0 = no injury, 10 = death; conditions: alone
Experimental: as §1, §2, §3, §4, §7

Pigweed [12] = assay: General herbicidal effect alone/in combination, pigweed; format: in vivo; set-up: key: 0-10 scale: 0 = no injury, 10 = death; conditions: alone
Experimental: as §1, §2, §3, §4, §7

Morning glory = assay: General herbicidal effect alone/in combination, morning glory; format: in vivo; set-up: key: 0-10 scale: 0 = no injury, 10 = death; conditions: alone
Experimental: as §1, §2, §3, §4, §7

Sorghum = assay: General herbicidal effect alone/in combination, sorghum; format: in vivo; set-up: key: 0-10 scale: 0 = no injury, 10 = death; conditions: alone
Experimental: as §1, §2, §3, §4, §7

Foxtail Millet = assay: General herbicidal effect alone/in combination, foxtail millet; format: in vivo; set-up: key: 0-10 scale: 0 = no injury, 10 = death; conditions: alone
Experimental: as §1, §2, §3, §4, §7

Corn [13] = assay: General herbicidal effect alone/in combination, corn (second Corn column); format: in vivo; set-up: key: 0-10 scale: 0 = no injury, 10 = death; conditions: alone
Experimental: as §1, §2, §3, §4, §7

Large Crabgrass = assay: General herbicidal effect alone/in combination, large crabgrass; format: in vivo; set-up: key: 0-10 scale: 0 = no injury, 10 = death; conditions: alone, 1.0 lbs/A; listed as A
Experimental: as §1, §2, §3, §4, §7

Rice = assay: General herbicidal effect alone/in combination, rice; format: in vivo; set-up: key: 0-10 scale: 0 = no injury, 10 = death; conditions: alone
Experimental: as §1, §2, §3, §4, §7

Barnyard Grass = assay: General herbicidal effect alone/in combination, barnyard grass; format: in vivo; set-up: key: 0-10 scale: 0 = no injury, 10 = death; conditions: alone
Experimental: as §1, §2, §3, §4, §7

## On1c(C(F)(F)F)nc2nccc(Cl)c21 [7-chloro-1-hydroxy-2-(trifluoromethyl)-1H-imidazo(4,5-b)pyridine]
Corn [1]; 4 lbs/acre
  Injury Rating, Corn: 0
Corn [1]; 8 lbs/acre
  Injury Rating, Corn: 1
Crabgrass [2]; 4 lbs/acre
  Injury Rating, Crabgrass: 1
Crabgrass [2]; 8 lbs/acre
  Injury Rating, Crabgrass: 2
Pigweed [3]; 4 lbs/acre
  Injury Rating, Pigweed: 3
Pigweed [3]; 8 lbs/acre
  Injury Rating, Pigweed: 3
Foxtail [4]; 4 lbs/acre
  Injury Rating, Foxtail: 1
Foxtail [4]; 8 lbs/acre
  Injury Rating, Foxtail: 3

## On1c(C(F)(F)F)nc2nc(Cl)ccc21 [5-chloro-1-hydroxy-2-(trifluoromethyl)-1H-imidazo(4,5-b)pyridine]
Corn [5]; 2 lbs/acre
  Injury Rating, Corn: 0
Corn [5]; 8 lbs/acre
  Injury Rating, Corn: 1
Cotton; 2 lbs/acre
  Injury Rating, Cotton: 0
Soybean; 2 lbs/acre
  Injury Rating, Soybean: 0
Crabgrass [6]; 2 lbs/acre
  Injury Rating, Crabgrass: 3
Crabgrass [6]; 8 lbs/acre
  Injury Rating, Crabgrass: 3
Pigweed [7]; 2 lbs/acre
  Injury Rating, Pigweed: 3
Pigweed [7]; 8 lbs/acre
  Injury Rating, Pigweed: 3
Foxtail [8]; 2 lbs/acre
  Injury Rating, Foxtail: 2
Foxtail [8]; 8 lbs/acre
  Injury Rating, Foxtail: 4

## On1c(C(F)(F)C(F)F)nc2nc(Cl)c(Cl)cc21 [1-hydroxy-5,6-dichloro-2-(1,1,2,2-tetrafluoroethyl)-1H-imidazo(4,5-b)pyridine]
Corn [5]; 1 lbs/acre
  Injury Rating, Corn: 0
Corn [5]; 2 lbs/acre
  Injury Rating, Corn: 0
Corn [5]; 4 lbs/acre
  Injury Rating, Corn: 0
Corn [5]; 8 lbs/acre
  Injury Rating, Corn: 0
Cotton; 1 lbs/acre
  Injury Rating, Cotton: 0
Cotton; 2 lbs/acre
  Injury Rating, Cotton: 0
Cotton; 4 lbs/acre
  Injury Rating, Cotton: 0
Soybean; 1 lbs/acre
  Injury Rating, Soybean: 0
Soybean; 2 lbs/acre
  Injury Rating, Soybean: 0
Soybean; 4 lbs/acre
  Injury Rating, Soybean: 1B
Crabgrass [6]; 1 lbs/acre
  Injury Rating, Crabgrass: 0
Crabgrass [6]; 2 lbs/acre
  Injury Rating, Crabgrass: 1BS
Crabgrass [6]; 4 lbs/acre
  Injury Rating, Crabgrass: 2BS
Crabgrass [6]; 8 lbs/acre
  Injury Rating, Crabgrass: 2B
Pigweed [7]; 1 lbs/acre
  Injury Rating, Pigweed: 1S
Pigweed [7]; 2 lbs/acre
  Injury Rating, Pigweed: 3BS
Pigweed [7]; 4 lbs/acre
  Injury Rating, Pigweed: 3BS
Pigweed [7]; 8 lbs/acre
  Injury Rating, Pigweed: 3BS
Foxtail [8]; 1 lbs/acre
  Injury Rating, Foxtail: 0
Foxtail [8]; 2 lbs/acre
  Injury Rating, Foxtail: 0
Foxtail [8]; 4 lbs/acre
  Injury Rating, Foxtail: 1BS
Foxtail [8]; 8 lbs/acre
  Injury Rating, Foxtail: 1S
Velvet Leaf [9]; 1 lbs/acre
  Injury Rating, Velvet Leaf: 0
Velvet Leaf [9]; 2 lbs/acre
  Injury Rating, Velvet Leaf: 1B
Velvet Leaf [9]; 4 lbs/acre
  Injury Rating, Velvet Leaf: 1B
Velvet Leaf [9]; 8 lbs/acre
  Injury Rating, Velvet Leaf: 3B

## On1c(C(F)(F)F)nc2ncc(Cl)cc21 [6-chloro-1-hydroxy-2-(trifluoromethyl)-1H-imidazo(4,5-b)pyridine]
Corn [5]; 1 lbs/acre
  Injury Rating, Corn: 0
Corn [5]; 2 lbs/acre
  Injury Rating, Corn: 0
Corn [5]; 4 lbs/acre
  Injury Rating, Corn: 1
Corn [5]; 8 lbs/acre
  Injury Rating, Corn: 1
Cotton; 1 lbs/acre
  Injury Rating, Cotton: 0
Cotton; 2 lbs/acre
  Injury Rating, Cotton: 0
Cotton; 4 lbs/acre
  Injury Rating, Cotton: 0
Cotton; 8 lbs/acre
  Injury Rating, Cotton: 2
Soybean; 1 lbs/acre
  Injury Rating, Soybean: 0
Soybean; 2 lbs/acre
  Injury Rating, Soybean: 0
Soybean; 4 lbs/acre
  Injury Rating, Soybean: 0
Soybean; 8 lbs/acre
  Injury Rating, Soybean: 1
Crabgrass [6]; 1 lbs/acre
  Injury Rating, Crabgrass: 4
Crabgrass [6]; 2 lbs/acre
  Injury Rating, Crabgrass: 3
Crabgrass [6]; 4 lbs/acre
  Injury Rating, Crabgrass: 4
Crabgrass [6]; 8 lbs/acre
  Injury Rating, Crabgrass: 4
Pigweed [7]; 1 lbs/acre
  Injury Rating, Pigweed: 4
Pigweed [7]; 2 lbs/acre
  Injury Rating, Pigweed: 4
Pigweed [7]; 4 lbs/acre
  Injury Rating, Pigweed: 4
Pigweed [7]; 8 lbs/acre
  Injury Rating, Pigweed: 4
Foxtail [8]; 1 lbs/acre
  Injury Rating, Foxtail: 3
Foxtail [8]; 2 lbs/acre
  Injury Rating, Foxtail: 3
Foxtail [8]; 4 lbs/acre
  Injury Rating, Foxtail: 3
Foxtail [8]; 8 lbs/acre
  Injury Rating, Foxtail: 3
Velvet Leaf [9]; 1 lbs/acre
  Injury Rating, Velvet Leaf: 2
Velvet Leaf [9]; 2 lbs/acre
  Injury Rating, Velvet Leaf: 4
Velvet Leaf [9]; 4 lbs/acre
  Injury Rating, Velvet Leaf: 4
Velvet Leaf [9]; 8 lbs/acre
  Injury Rating, Velvet Leaf: 3
Jimsonweed; 0.25 lbs/A, listed as A
  herbicidal effect, Jimsonweed: 4B and 2B
Jimsonweed; 0.5 lbs/A, listed as A
  herbicidal effect, Jimsonweed: 8BS and 5BS
Jimsonweed; 1.0 lbs/A
  herbicidal effect, Jimsonweed: 9BS
Jimsonweed; 2.0 lbs/A
  herbicidal effect, Jimsonweed: 9BS
Lambs Quarter; 1.0 lbs/A
  herbicidal effect, Lambs Quarter: 9SB and 6SB
Lambs Quarter; 2.0 lbs/A
  herbicidal effect, Lambs Quarter: 9BS and 8BS
Velvet Leaf [10]; 0.25 lbs/A
  herbicidal effect, Velvet leaf: 0
Velvet Leaf [10]; 0.5 lbs/A, listed as A
  herbicidal effect, Velvet leaf: 2S and 3S
Corn [11]; 0.25 lbs/A
  herbicidal effect, Corn: 0
Corn [11]; 0.5 lbs/A
  herbicidal effect, Corn: 0
Corn [11]; 1.0 lbs/A
  herbicidal effect, Corn: 0
Ragweed; 0.25 lbs/A, listed as A
  herbicidal effect, Ragweed: 2S and 3S
Ragweed; 1.0 lbs/A
  herbicidal effect, Ragweed: 8BS
Pigweed [12]; 0.25 lbs/A
  herbicidal effect, Pigweed: 0
Pigweed [12]; 0.5 lbs/A, listed as A
  herbicidal effect, Pigweed: 2S and 3S
Morning glory; 0.5 lbs/A
  herbicidal effect, Morning glory: 10D
Morning glory; 2.0 lbs/A
  herbicidal effect, Morning glory: 10D
Sorghum; 0.25 lbs/A
  herbicidal effect, Sorghum: 0
Sorghum; 1.0 lbs/A
  herbicidal effect, Sorghum: 8BS
Sorghum; 2.0 lbs/A
  herbicidal effect, Sorghum: 10D
Foxtail Millet; 0.25 lbs/A
  herbicidal effect, Foxtail Millet: 0
Foxtail Millet; 0.5 lbs/A
  herbicidal effect, Foxtail Millet: 2S
Foxtail Millet; 2.0 lbs/A
  herbicidal effect, Foxtail Millet: 10D
Corn [13]; 0.25 lbs/A
  herbicidal effect, Corn: 0
Corn [13]; 0.5 lbs/A
  herbicidal effect, Corn: 0
Corn [13]; 1.0 lbs/A
  herbicidal effect, Corn: 0
Large Crabgrass
  herbicidal effect, Large Crabgrass: 3S and 2S
Rice; 0.25 lbs/A
  herbicidal effect, Rice: 0
Rice; 0.5 lbs/A
  herbicidal effect, Rice: 3B
Barnyard Grass; 0.25 lbs/A
  herbicidal effect, Barnyard Grass: 0
Barnyard Grass; 1.0 lbs/A, listed as A
  herbicidal effect, Barnyard Grass: 3S and 2S
Barnyard Grass; 2.0 lbs/A
  herbicidal effect, Barnyard Grass: 9BS
